Assay results: patent publication US10350334B2, “Catheter locking solution having antimicrobial and anticoagulation properties” (Becton, Dickinson and Company, priority 2009, dated 2019)

Tests used:
C. albicans = experiment: Minimum Biofilm Inhibitory Concentration (MBIC) test; format: cell-based, Candida albicans; conditions: for MBIC: adhered cells, 24 hours incubation; for MBIC Assuming 2 mL lock volume: amount in 2 mL lock volume
Protocol: (§1) To further evaluate the efficacy of local anesthetics in antimicrobial lock solutions of the present invention, the minimum concentration at which these drugs can inhibit biofilm growth was tested. The local anesthetics identified in Table 4 were tested against three different species of bacteria identified in Table 3 to assess the antimicrobial efficacy against adhered microbes. It is known that adhered microbes, or biofilms, can be more resistant to antimicrobials than planktonic cells.
(§2) Experiments were conducted against adhered microbes as follows: first, a test tube containing 10 mL of sterile TSB was inocubated with BD BBL™ Qualiswab™, with the strain of interest. The tube was placed in an incubator at 37° C. overnight. The next day, a flask containing 25 mL of sterile TSB (or Sabouraud Dextrose Broth (SDB) for fungal species) was inoculated with 1 mL of bacterial suspension. The flask was placed in an incubator at 37° C. and shaken at 150 RPM. The next day a new flask containing 25 mL of TSB (or SDB) media was inoculated with 1 mL from the previous culture. The bacterial or fungal species were allowed to grow to log phase.
(§3) After the microbes entered the log phase, their concentration was checked to ensure that they had reached a minimum of 1×10^8 CFU/mL per a 0.5 MacFarland standard. Microbes were diluted to a concentration of 1×10^5 CFU/mL using a nephelometer and 200 μL of the microbial suspensions were plated on each of the wells of a 96 well plate. The plate was incubated in a standard incubator at 37° C. for 2 hours to allow for microbial cell adhesion. Next, dilutions of the desired concentrations of antimicrobials were prepared. In a separate, blank plate, 1:2 serial dilutions were prepared with the highest concentration of the antimicrobial to the left of the plate, decreasing in concentration towards the right of the plate. For example, 170 μL of the highest concentration of an antimicrobial was dispensed in column 1 (left of plate). Each of the rest of the columns received 170 μL of saline. Column 2 received 170 μL of antimicrobial, making for a 1:2 dilution (or 50% of original concentration). Contents of Column 2 were then transferred to 3, then from 3 to 4, and so forth. Each well was supplemented with 20% media (TSB for S. epidermidis and P. aeruginosa and SDB for C. albicans), thereby ensuring the viability of the cells over the test time period (24 hours). Positive control wells had 20% media in saline. The bacterial plate was removed from the incubator, and bacterial suspension discarded (adhered cells remain on plate). The antimicrobial formulations identified in Table 4 were then added to the bacterial plate and incubated in a standard incubator at 37° C. for 24 hours. After this time period, solutions in the plate were discarded and plates were rinsed with 200 μL of saline. The cells were then fixed with 200 μL of 95% ethanol for 30 minutes, and allowed to air dry for 10 minutes. Next, the cells were stained for 20 minutes with 250 μL of a filtered solution of 2% crystal violet dye. The plates were then rinsed three times with water, and the 2% crystal violet dye was solubilized with 300 μL of 95% ethanol. The plates were allowed to stand for 10 minutes to complete solubilization and then the plates were read on a spectrophotometer at 570 nm absorbance, wherein high absorbance readings of >0.600 indicated microbial growth. Columns in the plate that had no growth were recorded as the […] (MBIC). FIG. 2 illustrates the MBIC corresponding to the specific local anesthetics.

[1] = system: Staphylococcus epidermidis biofilm; experiment: Catheter biofilm eradication (catheter segment test) on silicone tubing; format: cell-based; conditions: 1 hour, silicone catheter segments
Protocol: (§4) To understand the antimicrobial effects of the local anesthetics used in the lock solution of the present invention in a clinical setting, a biofilm was grown on silicone catheter-like tubing and treated with various concentrations of local anesthetics. First, a sterile silicone catheter-like tube containing 10 mL TSB media was inoculated with a BD BBL™ Qualiswab™, and placed in an incubator at 37° C. overnight. The next day, a sterile flask containing 25 mL TSB (for bacterial species) or 25 mL SDB (for fungal species) was inoculated with the cultured cells. The morning of the experiment, a new flask containing 25 mL of media was inoculated with the new overnight suspension. These steps were taken to ensure that cells were in the log phase, which for S. epidermidis was ˜3-4 hours, and for C. albicans was around ˜18 hrs. […] Microbial concentrations were adjusted to 1×10^5 CFU/mL by dilution with appropriate media. Silicone catheter-like tubing was terminally sterilized by autoclaving the tube for 45 minutes at 121° C. The sterilized catheter-like tubing was inoculated with 1×10^5 CFU/mL for 2 hours under continuous flow. Continuous flow was created by using a peristaltic pump, in which bacterial suspension was flowed through the catheter segments into a waste reservoir. After the 2 hour time period, the same set up was used to pump TSB media through the tubing for an additional 24 hours to allow biofilm to form on the walls of the catheter lumen. After 24 hours, sterilized saline was pumped through the lumen for 30 minutes to rinse the catheters. Catheters were then cut into 1 inch segments using sterile techniques. Catheter segments were dropped into sterile tubes containing 4 mL of antimicrobials, and incubated in a 37° C. incubator shaker for 1 hour. Segments were removed from treatment tubes and placed into new tubes filled with 6 mL of sterile saline. Each segment was swabbed with a sterile swab and both the tube and the swab were sonicated (Ultrasonic cleaner VWR Model 250T) for 3 minutes. Tubes and swabs were then vortexed (Fisher Scientific Vortex Mixer #02-215-365) for 30 seconds each. One hundred microliters of suspension was plated onto TSB agar plates (SDB for fungal species). The remaining 5.9 mL of suspension was passed through 0.4 μm filters and filters were placed on TSB plates. This step was taken to ensure that all possible bacteria were being recovered. All TSB plates were then incubated at 37° C. in a static incubator for 24-48 hours, at which time colony forming units were counted.

Candida albicans biofilm = experiment: as above; format: cell-based; conditions: 1 hour, silicone catheter segments
Protocol: as §4

P. aeruginosa = experiment: Minimum Biofilm Inhibitory Concentration (MBIC) test; format: cell-based, Pseudomonas aeruginosa; conditions: for MBIC: adhered cells, 24 hours incubation; for MBIC Assuming 2 mL lock volume: amount in 2 mL lock volume
Protocol: as §1, §2, §3

SMILES | MBIC (C. albicans) | MBIC Assuming 2 mL lock volume (C. albicans) | Log reduction of established biofilm ([1]; 16 mg/mL) | Log reduction of established biofilm (Candida albicans biofilm) | MBIC (P. aeruginosa) | MBIC Assuming 2 mL lock volume (P. aeruginosa) | Log reduction of established biofilm ([1]; 30 mg/mL) | eradication of established biofilm (Candida albicans biofilm; 30 mg/mL) | MBIC (P. aeruginosa; HCl) | MBIC (P. aeruginosa; listed as tetracaine, HCl)
CCCCN1CCCCC1C(=O)Nc1c(C)cccc1C.Cl (stereo not shown) [Bupivacaine, Bupivacaine HCl] | No inhibition | No inhibition | ~0.5 Log | ~1 Log | 16.25 mg/mL | 32.5 mg | – | – | – | –
CCCCNc1ccc(C(=O)OCCN(C)C)cc1.Cl [Tetracaine, Tetracaine HCl] | 0.24 mg/mL | 0.48 mg | – | – | – | 12.82 mg | 1.7 Log | completely eradicated | 6.41 mg/mL | 1.88 mg/mL
